# Measurements as given in a melting point compilation (Tetko et al.).
row,Structure (SMILES),melting point [°C]
1,OCc1ncc[nH]1,99 to 101
2,NNC(=O)Cc1cc[nH]n1,180 to 182
3,CCOC(=O)C(=O)c1nccn1C,52 to 54
4,O=C(O)c1cc2c(F)cc(Br)cc2[nH]1,230 to 232
5,O=C(O)c1cccc(OC2CCCCC2)c1,75 to 77
6,CCCCc1ccc(NC2=NCCCS2)cc1,70 to 72
7,[N-]=[N+]=Nc1ccc(I)cc1,33 to 35
8,CCN(CC)S(=O)(=O)c1ccc(NCCO)c(N)c1,157 to 159
9,Cc1cc(C)c(S(=O)(=O)N2CCCC2C(=O)O)c(C)c1 (stereo unspecified),84 to 86
10,COc1ncc(C)cc1N,77 to 79
11,O=C(O)C1CCN(C(=O)C2(c3ccccc3)CCC2)CC1,146 to 148
12,Nc1nnc(-c2ccoc2)[nH]1,188 to 190
13,CC1CCN(Cc2csc(N)n2)CC1,145 to 147
14,Cc1nnc(S)n1C,112 to 115
15,O=C(O)C1CCc2c(Cl)cccc21 (stereo unspecified),111 to 113
16,COc1ccc(C(CN)NC(=O)OC(C)(C)C)cc1 (stereo unspecified),90 to 92
17,O=C(O)c1cc(I)c(F)cc1F,163 to 165
18,O=C(O)c1ccc(F)nc1,144 to 148

row,Structure (SMILES),melting point [°C]
1,O=C(CCl)Nc1ccc(S(=O)(=O)N2CCOCC2)cc1,145 to 147
2,O=C(CCl)c1cnc(N2CCCCC2)s1,118 to 120
3,O=C(NC1CC1)c1ccc(Br)cc1,151 to 153
4,Nc1cc(F)c(OC2CCCCC2)cc1C(=O)O,159 to 161
5,O=C(Cc1ccc(O)cc1)NCCO,134 to 136
6,CS(=O)(=O)CCS(=O)(=O)c1ccc(N)cc1,209 to 211
7,Cc1nc2ncnn2c(C)c1CC(=O)O,220 to 222
8,Nc1ccc(SC(F)(F)F)c(F)c1,33 to 35
9,CNC(=O)c1cccc(O)c1,108 to 110
10,O=C(c1ccc(S(=O)(=O)Cl)cc1)N1CCOCC1,110 to 112
11,COc1cc(O)ncc1Br,203 to 205
12,[N-]=[N+]=NS(=O)(=O)c1cccc2c1N=S=N2,118 to 120
13,CN(CCO)c1ccc([N+](=O)[O-])cc1,97 to 99
14,COC(=O)C=Cn1c(=O)ccn2ncnc12,239 to 241
15,NNc1ccc(S(=O)(=O)NC2CCCCCCC2)cn1,140 to 142
16,N#CCC(=O)c1ccc(Cl)cc1F,79 to 81
17,COc1cc(C(C)=O)ccc1S,58 to 60

# The remaining lines, values ahead:
row,melting point [°C],Structure (SMILES)
1,208 to 210,c1cc(-c2ncc[nH]2)ccn1
2,109 to 111,NC(C(=O)O)(c1cccc(Cl)c1)C(F)(F)F (stereo unspecified)
3,161 to 163,Cc1noc(-c2ccc(N)c(C)c2)n1
4,114 to 116,C/C(=N\NC(N)=S)c1ccccc1
5,75 to 77,COC(=O)NC(Cc1ccccc1)C(=O)O (stereo unspecified)
6,136 to 138,O=Cc1ccc(-c2ccc([N+](=O)[O-])cc2Cl)o1
7,154 to 156,O=C(O)c1nccnc1Sc1ccccc1
8,229 to 231,NC(=O)Cc1nc2ccccc2[nH]1
9,75 to 77,NC1CCN(CC(=O)Nc2ccccc2)CC1
10,93 to 96,NS(=O)(=O)c1cccc(NC(=O)c2ccccc2Cl)c1
11,141 to 143,Cc1cc(C)c2ncc(C#N)c(Cl)c2c1
12,129 to 131,O=C(O)C(Oc1ccc(Br)cc1Br)c1ccccc1 (stereo unspecified)
13,172 to 174,Oc1cccc(-n2ccnc2)c1
14,188 to 192,N#CCCn1cc(/C=C/C(=O)O)c2ccccc21
15,314 to 316,O=C(O)c1ccc(-n2ncc(Cl)c(Cl)c2=O)cc1
16,237 to 239,COc1ccc(C(N)CC(=O)O)cc1 (stereo unspecified)
17,199 to 201,Cc1cccc2c(=O)n(CCC(=O)O)cnc12
18,144 to 146,CC(=O)CN1C(=O)c2ccccc2S1(=O)=O

row,melting point [°C],Structure (SMILES)
1,148 to 150,Fc1ccc(-c2csc3nc(Cc4ccc(Cl)cc4)nc(Cl)c23)cc1
2,186 to 188,N#CCc1ccc(C(N)=O)cc1
3,154 to 156,CC(C)(C)OC(=O)Nc1ccccc1C(=O)O
4,222 to 224,Sc1nnc(-c2ccccc2)c(-c2ccccc2)n1
5,141 to 143,O=C(O)c1cncnc1-c1ccccc1
6,182 to 184,Nc1ccc(-c2ncc3n2CCCC3)cc1
7,105 to 107,COCC(=O)c1cccc([N+](=O)[O-])c1
8,144 to 146,Nc1ccccc1C(=O)Nc1ccncc1
9,104 to 106,CCC(=O)Nc1ccc(C(=O)CCl)cc1
10,105 to 107,COc1ccc2cc(C#N)ccc2c1
11,175 to 177,CCN(c1ccccc1)S(=O)(=O)c1cccc(C(=O)O)c1
12,37 to 39,c1ccc(-n2cccn2)nc1
13,176 to 178,CSc1cc(C)ccc1C(=O)O
14,205 to 207,CN(C(=O)c1ccc(Cl)cc1)c1ccc(O)cc1
15,162 to 164,COc1cccc(-c2nn(-c3ccc(C)cc3)cc2C(=O)O)c1
16,97 to 99,Nc1oncc1-c1ccccc1
17,143 to 145,Clc1ccc(Cl)c(-c2cc[nH]n2)c1
18,79 to 81,Cc1cccc(-c2cc(N)n(Cc3ccccc3)n2)c1
